Source: ChEMBL document CHEMBL4837239, “Identification of Thieno[3,2-d]pyrimidine Derivatives as Dual Inhibitors of Focal Adhesion Kinase and FMS-like Tyrosine Kinase 3” (J Med Chem, 2021)
pIC50: −log10 of the molar value. Activity calls are given as the source filed them. The calls are words filed in the database; no cut-off is given here.

How the values were obtained:
[1] = test system: MV4-11; assay: In vivo antitumor activity against human MV4-11 cells xenografted in mouse assessed as tumor growth inhibition at 20 mg/kg, po; type: functional; details: MV4-11, po
[2] = target: CYP2C19 (Homo sapiens, UniProt P33261); assay: Inhibition of CYP2C19 (unknown origin) at 10 uM relative to control; type: ADME
Chain of CYP2C19 (P33261 whole entry): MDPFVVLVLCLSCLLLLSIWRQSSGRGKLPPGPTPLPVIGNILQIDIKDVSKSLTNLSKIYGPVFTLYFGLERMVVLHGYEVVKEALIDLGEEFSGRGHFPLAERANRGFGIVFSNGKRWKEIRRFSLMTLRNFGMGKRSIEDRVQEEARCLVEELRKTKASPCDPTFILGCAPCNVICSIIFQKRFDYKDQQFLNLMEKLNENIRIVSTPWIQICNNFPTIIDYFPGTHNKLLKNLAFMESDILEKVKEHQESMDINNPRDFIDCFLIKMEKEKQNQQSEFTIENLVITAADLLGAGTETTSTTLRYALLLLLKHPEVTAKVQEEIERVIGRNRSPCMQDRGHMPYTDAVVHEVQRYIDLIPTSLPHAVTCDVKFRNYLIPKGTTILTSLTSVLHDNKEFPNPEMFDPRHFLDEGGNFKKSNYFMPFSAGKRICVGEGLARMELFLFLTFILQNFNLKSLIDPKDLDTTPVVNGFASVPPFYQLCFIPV

[3] = target: CYP2C9 (Homo sapiens, UniProt P11712); assay: Inhibition of CYP2C9 (unknown origin) at 10 uM relative to control; type: ADME
Chain of CYP2C9 (P11712 whole entry): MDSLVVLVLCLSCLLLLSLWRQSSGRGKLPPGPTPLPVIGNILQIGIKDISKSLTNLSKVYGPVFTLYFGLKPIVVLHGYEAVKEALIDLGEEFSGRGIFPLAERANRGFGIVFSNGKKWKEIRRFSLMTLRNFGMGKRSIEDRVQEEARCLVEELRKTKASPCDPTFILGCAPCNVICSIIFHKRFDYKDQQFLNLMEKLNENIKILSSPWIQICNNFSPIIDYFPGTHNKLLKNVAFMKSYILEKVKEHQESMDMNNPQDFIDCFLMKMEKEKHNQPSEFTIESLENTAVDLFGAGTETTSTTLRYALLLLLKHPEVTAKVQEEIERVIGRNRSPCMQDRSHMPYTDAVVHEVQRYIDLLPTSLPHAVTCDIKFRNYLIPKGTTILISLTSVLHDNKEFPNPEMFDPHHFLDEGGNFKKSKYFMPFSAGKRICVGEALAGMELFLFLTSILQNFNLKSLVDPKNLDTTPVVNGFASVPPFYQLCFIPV

[4] = test system: MDA-MB-231; assay: Antimetastatic activity against human MDA-MB-231 cells expressing firefly luciferase xenografted NSG orthotopic mouse model assessed as reduction in tumor weight at 70 mg/kg, po once daily measured for 2 weeks; type: functional, organism-based
[5] = test system: BaF3; assay: Antiproliferative activity against mouse Ba/F3 cells harbouring FLT3 D835Y mutant assessed as growth inhibition measured after 72 hrs by CellTiter-Glo assay; type: functional; details: Mus musculus, BaF3
[6] = target: T1, Focal adhesion kinase 1 (Homo sapiens, UniProt Q05397); assay: Inhibition of recombinant FAK (unknown origin) by radiometric kinase assay
Target sequence in this assay (Q05397 whole entry): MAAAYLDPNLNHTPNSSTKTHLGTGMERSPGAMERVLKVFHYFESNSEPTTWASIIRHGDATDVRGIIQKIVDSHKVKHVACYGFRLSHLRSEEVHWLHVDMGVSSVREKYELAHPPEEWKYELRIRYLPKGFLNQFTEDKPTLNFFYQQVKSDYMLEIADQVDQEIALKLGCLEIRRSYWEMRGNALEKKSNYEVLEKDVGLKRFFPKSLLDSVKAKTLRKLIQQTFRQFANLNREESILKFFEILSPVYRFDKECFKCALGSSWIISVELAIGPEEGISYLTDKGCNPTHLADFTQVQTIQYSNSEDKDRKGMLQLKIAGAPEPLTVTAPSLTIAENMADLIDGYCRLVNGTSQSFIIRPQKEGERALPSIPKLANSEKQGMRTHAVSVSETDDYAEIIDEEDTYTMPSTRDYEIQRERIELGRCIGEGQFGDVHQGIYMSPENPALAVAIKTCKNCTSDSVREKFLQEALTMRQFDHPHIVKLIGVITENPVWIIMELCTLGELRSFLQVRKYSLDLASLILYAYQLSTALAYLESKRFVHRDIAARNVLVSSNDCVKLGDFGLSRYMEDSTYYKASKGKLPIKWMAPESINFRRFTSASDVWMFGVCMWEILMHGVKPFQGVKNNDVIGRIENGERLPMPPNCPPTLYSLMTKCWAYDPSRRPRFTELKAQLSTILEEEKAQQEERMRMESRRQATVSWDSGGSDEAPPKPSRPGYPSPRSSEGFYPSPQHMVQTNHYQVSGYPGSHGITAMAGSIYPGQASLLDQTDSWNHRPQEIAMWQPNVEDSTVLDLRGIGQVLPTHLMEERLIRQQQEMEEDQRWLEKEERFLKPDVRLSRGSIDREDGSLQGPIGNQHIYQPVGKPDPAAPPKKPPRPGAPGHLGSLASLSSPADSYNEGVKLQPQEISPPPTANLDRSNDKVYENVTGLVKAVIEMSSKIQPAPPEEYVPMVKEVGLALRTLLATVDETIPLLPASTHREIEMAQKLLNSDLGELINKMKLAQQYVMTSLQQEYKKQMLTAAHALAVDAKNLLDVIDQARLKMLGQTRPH

[7] = target: CYP3A4 (Homo sapiens, UniProt P08684); assay: Inhibition of CYP3A4 (unknown origin) at 10 uM relative to control; type: ADME
Chain of CYP3A4 (P08684 whole entry): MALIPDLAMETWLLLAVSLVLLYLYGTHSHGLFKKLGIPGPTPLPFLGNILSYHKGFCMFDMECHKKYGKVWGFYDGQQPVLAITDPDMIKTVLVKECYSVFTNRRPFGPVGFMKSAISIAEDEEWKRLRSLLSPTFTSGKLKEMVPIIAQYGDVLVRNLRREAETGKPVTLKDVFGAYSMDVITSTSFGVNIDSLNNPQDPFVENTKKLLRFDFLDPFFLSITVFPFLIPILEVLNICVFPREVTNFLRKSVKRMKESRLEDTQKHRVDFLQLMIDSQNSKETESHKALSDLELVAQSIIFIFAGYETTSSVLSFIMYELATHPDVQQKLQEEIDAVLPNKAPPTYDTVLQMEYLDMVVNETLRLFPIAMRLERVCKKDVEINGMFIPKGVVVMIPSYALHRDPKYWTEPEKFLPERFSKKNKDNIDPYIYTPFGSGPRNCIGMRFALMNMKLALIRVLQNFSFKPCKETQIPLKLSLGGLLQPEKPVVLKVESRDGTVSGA

[8] = target: T1, Focal adhesion kinase 1; assay: Inhibition of FAK in human MDA-MB-231 cells assessed as inhibition of Pyk2 phosphorylation at 0.5 to 5 uM incubated for 24 hrs by Western blot analysis; type: cell-based; details: dose 0.5-5 µM
Target sequence in this assay (Q05397 2-1052 limits assumed): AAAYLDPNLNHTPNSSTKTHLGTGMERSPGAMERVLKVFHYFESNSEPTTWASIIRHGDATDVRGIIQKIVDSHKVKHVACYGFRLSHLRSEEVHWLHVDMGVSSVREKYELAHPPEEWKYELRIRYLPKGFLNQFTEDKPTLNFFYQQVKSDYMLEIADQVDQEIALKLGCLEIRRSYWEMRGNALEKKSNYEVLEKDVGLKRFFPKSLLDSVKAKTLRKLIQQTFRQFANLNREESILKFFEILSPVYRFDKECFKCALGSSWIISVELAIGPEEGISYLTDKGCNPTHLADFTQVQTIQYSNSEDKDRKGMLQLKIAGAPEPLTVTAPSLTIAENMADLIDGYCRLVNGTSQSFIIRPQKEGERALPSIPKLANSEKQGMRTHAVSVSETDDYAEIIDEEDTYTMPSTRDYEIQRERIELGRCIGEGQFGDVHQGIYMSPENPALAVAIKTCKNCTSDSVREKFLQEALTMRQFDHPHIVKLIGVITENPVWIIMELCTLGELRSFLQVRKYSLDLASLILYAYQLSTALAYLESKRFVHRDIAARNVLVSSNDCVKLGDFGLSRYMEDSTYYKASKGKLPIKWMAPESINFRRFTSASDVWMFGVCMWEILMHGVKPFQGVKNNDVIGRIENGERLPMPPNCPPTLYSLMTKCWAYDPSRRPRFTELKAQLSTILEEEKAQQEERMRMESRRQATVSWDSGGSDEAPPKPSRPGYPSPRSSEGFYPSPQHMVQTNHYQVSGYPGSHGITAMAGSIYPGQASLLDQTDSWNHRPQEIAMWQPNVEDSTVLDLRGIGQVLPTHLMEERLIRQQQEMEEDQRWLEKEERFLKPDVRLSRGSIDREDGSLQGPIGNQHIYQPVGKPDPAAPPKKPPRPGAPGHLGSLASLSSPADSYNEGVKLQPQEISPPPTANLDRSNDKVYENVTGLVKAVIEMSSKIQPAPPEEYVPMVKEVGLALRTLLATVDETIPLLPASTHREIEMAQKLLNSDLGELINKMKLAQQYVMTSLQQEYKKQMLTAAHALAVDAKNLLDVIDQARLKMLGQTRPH

[9] = test system: Prostatic carcinoma cell; assay: Antiproliferative activity against human prostate cancer cells assessed as growth inhibition measured after 72 hrs by MTT assay; type: functional, cell-based
[10] = target: T1, Focal adhesion kinase 1; assay: Inhibition of FAK (unknown origin) at 0.1 uM
Target sequence in this assay (Q05397 2-1052 limits assumed): as above

[11] = test system: MDA-MB-231; assay: Antiinvasive activity in human MDA-MB-231 cells assessed as suppression of invasion measured after 12 hrs by trans well experiment; type: functional; details: dose 0.5-1 µM, at 0.5 to 1 µM
[12] = test system: MDA-MB-231; assay: Antimetastatic activity against human MDA-MB-231 cells expressing firefly luciferase xenografted NSG orthotopic mouse model assessed as suppression of lymphogenous metastasis at 70 mg/kg, po once daily measured for 2 weeks; type: functional, organism-based
[13] = test system: MDA-MB-231; assay: In vivo antitumor activity against human MDA-MB-231 cells xenografted in Balb/c mouse assessed as tumor volume at 40 mg/kg, po once daily measured for 16 days (reference value: 600 mm^3); type: functional; details: time 16 day
[14] = target: T1, Focal adhesion kinase 1; assay: Inhibition of FAK autophosphorylation at Y576 in human HCT-116 cells at 5 uM incubated for 24 hrs by Western blot analysis; type: cell-based
Target sequence in this assay (Q05397 2-1052 limits assumed): as above

[15] = test system: MDA-MB-231; assay: Antimetastatic activity against human MDA-MB-231 cells expressing firefly luciferase xenografted NSG orthotopic mouse model assessed as reduction in luminescence intensity at 40 to 70 mg/kg, po once daily measured for 2 weeks; type: functional, organism-based; details: dose 40-70 mg/kg
[16] = test system: MDA-MB-231; assay: In vivo antitumor activity against human MDA-MB-231 cells xenografted in Balb/c mouse assessed as tumor volume at 70 mg/kg, po once daily measured for 16 days (reference value: 600 mm^3); type: functional; details: time 16 day
[17] = target: Tyrosine-protein kinase Lck (Homo sapiens, UniProt P06239); assay: Inhibition of Lck (unknown origin)
Chain of Tyrosine-protein kinase Lck (P06239 whole entry): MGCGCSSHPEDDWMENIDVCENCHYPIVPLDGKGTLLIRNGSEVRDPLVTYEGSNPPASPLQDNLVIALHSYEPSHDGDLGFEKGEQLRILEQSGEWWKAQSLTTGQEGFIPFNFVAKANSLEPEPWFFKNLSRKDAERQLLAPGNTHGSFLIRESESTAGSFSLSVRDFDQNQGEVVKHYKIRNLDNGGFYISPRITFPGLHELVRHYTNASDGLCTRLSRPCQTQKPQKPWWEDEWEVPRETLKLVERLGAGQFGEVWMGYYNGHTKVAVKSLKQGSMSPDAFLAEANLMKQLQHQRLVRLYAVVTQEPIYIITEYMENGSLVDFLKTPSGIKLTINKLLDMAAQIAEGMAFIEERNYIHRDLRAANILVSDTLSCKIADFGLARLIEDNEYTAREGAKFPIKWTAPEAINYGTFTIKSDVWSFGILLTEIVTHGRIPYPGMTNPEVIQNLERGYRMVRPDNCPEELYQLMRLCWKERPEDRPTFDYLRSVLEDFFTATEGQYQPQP

[18] = test system: MDA-MB-231; assay: Induction of morphological changes in human MDA-MB-231 cells at 10 uM measured within 2 hrs by fluorescence analysis; type: functional, cell-based; details: time hrs <=2
[19] = target: Proto-oncogene tyrosine-protein kinase Src (Homo sapiens, UniProt P12931); assay: Inhibition of Src (unknown origin)
Chain of Proto-oncogene tyrosine-protein kinase Src (P12931 2-536 limits assumed): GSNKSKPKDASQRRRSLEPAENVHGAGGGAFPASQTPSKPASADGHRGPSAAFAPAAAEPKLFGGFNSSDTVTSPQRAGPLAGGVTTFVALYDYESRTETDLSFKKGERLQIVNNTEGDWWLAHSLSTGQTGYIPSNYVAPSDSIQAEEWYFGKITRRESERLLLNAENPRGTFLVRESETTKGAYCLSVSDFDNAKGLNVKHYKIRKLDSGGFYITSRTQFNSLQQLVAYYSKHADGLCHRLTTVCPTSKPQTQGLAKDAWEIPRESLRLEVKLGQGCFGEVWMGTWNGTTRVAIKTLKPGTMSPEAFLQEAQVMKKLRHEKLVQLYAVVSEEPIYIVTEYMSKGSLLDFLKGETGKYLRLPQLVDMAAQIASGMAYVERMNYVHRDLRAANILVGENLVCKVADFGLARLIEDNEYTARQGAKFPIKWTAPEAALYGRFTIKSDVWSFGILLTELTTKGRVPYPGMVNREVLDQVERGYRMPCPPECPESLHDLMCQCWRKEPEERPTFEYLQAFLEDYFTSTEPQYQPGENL

[20] = test system: T2, Receptor-type tyrosine-protein kinase FLT3 (Homo sapiens), P36888 [D835Y]; assay: Inhibition of FLT3-D835Y mutant (unknown origin) expressed in mouse Ba/F3 cells assessed as decrease in ERK phosphorylation at 10 nM by Western blot analysis; type: cell-based; details: BaF3
T2 sequence (whole entry): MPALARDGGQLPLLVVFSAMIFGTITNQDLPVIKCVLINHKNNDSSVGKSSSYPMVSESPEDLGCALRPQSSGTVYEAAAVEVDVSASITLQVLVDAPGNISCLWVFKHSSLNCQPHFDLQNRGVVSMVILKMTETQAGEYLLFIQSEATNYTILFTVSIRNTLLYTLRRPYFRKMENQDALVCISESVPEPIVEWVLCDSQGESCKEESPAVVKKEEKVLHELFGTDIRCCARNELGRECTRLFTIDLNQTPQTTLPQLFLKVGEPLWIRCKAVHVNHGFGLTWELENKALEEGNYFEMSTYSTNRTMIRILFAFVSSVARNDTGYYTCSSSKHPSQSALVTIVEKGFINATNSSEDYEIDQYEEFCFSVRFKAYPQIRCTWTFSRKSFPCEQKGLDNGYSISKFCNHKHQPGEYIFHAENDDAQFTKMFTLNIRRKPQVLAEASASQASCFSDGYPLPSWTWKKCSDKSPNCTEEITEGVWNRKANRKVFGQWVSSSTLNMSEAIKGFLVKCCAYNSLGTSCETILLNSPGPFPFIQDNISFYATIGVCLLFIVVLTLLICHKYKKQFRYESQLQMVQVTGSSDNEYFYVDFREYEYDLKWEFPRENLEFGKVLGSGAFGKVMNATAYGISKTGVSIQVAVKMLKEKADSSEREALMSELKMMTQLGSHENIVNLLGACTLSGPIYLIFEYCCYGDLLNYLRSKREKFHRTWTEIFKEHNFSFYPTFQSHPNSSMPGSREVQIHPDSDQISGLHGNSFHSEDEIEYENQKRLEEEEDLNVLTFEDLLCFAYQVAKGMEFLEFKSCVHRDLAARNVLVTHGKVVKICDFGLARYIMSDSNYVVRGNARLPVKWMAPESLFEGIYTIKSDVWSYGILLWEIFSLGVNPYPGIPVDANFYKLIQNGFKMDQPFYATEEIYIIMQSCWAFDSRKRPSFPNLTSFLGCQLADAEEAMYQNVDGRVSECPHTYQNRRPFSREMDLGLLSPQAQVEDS

[21] = test system: NCI-H23; assay: Antiproliferative activity against human NCI-H23 cells assessed as growth inhibition measured after 72 hrs by MTT assay; type: functional, cell-based
[22] = target: T1, Focal adhesion kinase 1; assay: Inhibition of FAK autophosphorylation at Y925 in human HCT-116 cells at 5 uM incubated for 24 hrs by Western blot analysis; type: cell-based
Target sequence in this assay (Q05397 2-1052 limits assumed): as the sequence (Q05397 2-1052 limits assumed) above

[23] = test system: MDA-MB-231; assay: Induction of apoptosis in human MDA-MB-231 cells assessed as cleaved PARP at 0.1 to 10 uM incubated for 24 hrs by Western blot analysis; type: functional, cell-based; details: dose 0.1-10 µM
[24] = test system: BaF3; assay: Antiproliferative activity against mouse Ba/F3 cells harbouring FLT3 ITD mutant assessed as growth inhibition measured after 72 hrs by CellTiter-Glo assay; type: functional; details: Mus musculus, BaF3
[25] = Metabolic stability in human liver microsomes assessed as compound remaining at 1 uM measured after 1 hr; type: ADME, Microsome; details: read-out: Stabilty
[26] = test system: MDA-MB-231; assay: Antimigratory activity in human MDA-MB-231 cells assessed as suppression of migration at 1 uM measured after 12 hrs by scratch wound healing assay; type: functional
[27] = target: T1, Focal adhesion kinase 1; assay: Inhibition of FAK (unknown origin)
Target sequence in this assay (Q05397 whole entry): as the sequence (Q05397 whole entry) above

[28] = target: Tyrosine-protein kinase JAK1 (Homo sapiens, UniProt P23458); assay: Inhibition of JAK1 (unknown origin)

With `CCN1CCN(c2ccc(Nc3ncc4scc(-c5cccc(NS(C)(=O)=O)c5)c4n3)cc2)CC1` the inhibition in vivo at 20 mg/kg [1] was 65%, the inhibition at 10 µM [2] was 90.6% and the inhibition at 10 µM [3] was 93.6%. For the same molecule, the Activity [4] was “Active”, the GI50 [5] was 0.4 nM and the pIC50 [6] was 8.15. For the same molecule, the inhibition at 10 µM [7] was 71.9%, the inhibition [8] was “Active” and the Activity [9] was “Active”. The inhibition [10] was 95.6%, the “inhibition (INH)” value [11] was 50% and the Activity [12] was “Active”. For the same molecule, the Activity [13] was 400 mm3, the inhibition [14] was “Active” and the Activity [15] was “Active”. The Activity [16] was 300 mm3, the pIC50 [17] was 8.11 and the Activity [18] was “Active”. The pIC50 [19] was 8.47, the inhibition [20] was 100% and the Activity [21] was “Active”. The inhibition [22] was “Active”, the Activity [23] was “Active” and the GI50 [24] was 4 nM. The remaining at 1 h, 1 µM [25] was 80.2%, the inhibition at 1 µM [26] was 50% and the pIC50 [27] was 8.01. For the same molecule, the pIC50 [28] was 8.74.
